Where two headings read alike, the source gives them in different places.
What was measured:
[1] = test system: Plasmodium falciparum; experiment: Antimalarial activity, in vitro culture, [3H]-hypoxanthine incorporation; assay type: cell-based; conditions: 72 h, asynchronous culture, 48 h + 24 h with [3H]-hypoxanthine, read-out: IC50 (nM) of malaria culture (Plasmodium falciparum)
Method: The antimalarial activity of substances 1 to 8 (see page 5) was determined using in vitro cultures of the causative organism of malaria, Plasmodium falciparum. 200 μl of an asynchronous Plasmodium falciparum culture with a 0.4% blood parasite content and a heamatocrit of 2% were loaded into each of the wells of a 96 well microtitre plate. A serial dilution series of the compounds was then prepared in steps of three between concentrations of 100 and 0.14 μmol l^−1. The plates were incubated at 37° C., 3% CO2 and 5% O2 over a period of 48 hours. 30 μl of medium supplemented with 27 μCi ml^−1 of [^3H]-hypoxanthine were then added to each well. After 24 hours' incubation, the parasites were harvested by filtration through glass fibre filters and the incorporated radioactivity was measured. Inhibition of parasite growth was measured as the percentage inhibition of tritium incorporation. Inhibition of parasite growth was expressed as the percentage inhibition of tritium incorporation relative to a comparison without the substance. The median inhibitory concentration (IC50) of the substance was determined by extrapolating the values.

[2] = test system: Abutilon theophrasti; experiment: Herbicidal activity, soil, post-emergence; assay type: in vivo
Method: (§1) Herbicidal activity is determined using standard methods.
(§2) Substances 1 to 8 listed on page 5 are again investigated.

[3] = test system: Cyperus esculentus; experiment: Herbicidal activity, soil, post-emergence; assay type: in vivo
Method: as §1, §2

[4] = test system: Xanthium strumarium; experiment: Herbicidal activity, soil, post-emergence; assay type: in vivo
Method: as §1, §2

[5] = test system: Sinapis arvensis; experiment: Herbicidal activity, soil, post-emergence; assay type: in vivo; conditions: Mutarda arvensis
Method: as §1, §2

[6] = test system: Amaranthus retroflexus; experiment: Herbicidal activity, soil, post-emergence; assay type: in vivo
Method: as §1, §2

[7] = test system: Avena fatua; experiment: Herbicidal activity, soil, post-emergence; assay type: in vivo
Method: as §1, §2

[8] = test system: Beta vulgaris; experiment: Herbicidal activity, soil, post-emergence; assay type: in vivo
Method: as §1, §2

[9] = test system: Zea mays; experiment: Herbicidal activity, soil, post-emergence; assay type: in vivo
Method: as §1, §2

[10] = test system: Setaria viridis; experiment: Herbicidal activity, soil, post-emergence; assay type: in vivo
Method: as §1, §2

[11] = test system: Alopecurus myosuroides; experiment: Herbicidal activity, soil, post-emergence; assay type: in vivo
Method: as §1, §2

[12] = test system: Galium aperine; experiment: Herbicidal activity, soil, post-emergence; assay type: in vivo
Method: as §1, §2

[13] = test system: Echinochloa; experiment: Herbicidal activity, water, pre-emergence; assay type: in vivo
Method: as §1, §2

[14] = test system: Rice; experiment: Herbicidal activity, water, pre-emergence; assay type: in vivo; conditions: Oryza sativa
Method: as §1, §2

[15] = test system: Lepidium; experiment: Herbicidal activity, water, pre-emergence; assay type: in vivo
Method: as §1, §2

[16] = test system: Solanum; experiment: Herbicidal activity, water, pre-emergence; assay type: in vivo
Method: as §1, §2

[17] = biological target: T1, DOXP reductoisomerase from Helicobacter pylori (Helicobacter pylori, UniProt P56139); experiment: DOXP reductoisomerase inhibition (NADPH oxidation at 365 nm); assay type: biochemical
T1 construct: made in house; host or cells: Helicobacter pylori (so in the source)
T1 sequence (P56139 1-368): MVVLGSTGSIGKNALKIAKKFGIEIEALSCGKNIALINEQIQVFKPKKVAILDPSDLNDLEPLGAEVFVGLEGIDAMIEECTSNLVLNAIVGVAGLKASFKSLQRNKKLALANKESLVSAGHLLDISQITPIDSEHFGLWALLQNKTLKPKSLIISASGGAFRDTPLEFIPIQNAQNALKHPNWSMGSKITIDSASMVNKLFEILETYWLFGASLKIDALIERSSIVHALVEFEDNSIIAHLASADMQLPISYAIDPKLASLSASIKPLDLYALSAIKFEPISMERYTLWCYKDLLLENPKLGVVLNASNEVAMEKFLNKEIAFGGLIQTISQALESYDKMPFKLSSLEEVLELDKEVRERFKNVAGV
Method: The DOXP reductoisomerase of Helicobacter pylori was expressed as a recombinant protein in Helicobacter pylori. The activity of DOXP reductoisomerase was determined in a batch containing 100 mM tris-HCl (pH=7.5), 1 mM MnCl2, 0.3 mM NADPH and 1 mM DOXP.
The oxidation of NADPH was here measured at 365 nm in a spectrophotometer. The inhibition studies were performed by measuring the activity of DOXP reductoisomerase in the presence of compounds 1 to 8 (see page 5) at various concentrations between 0. 1 and 100 μmol l^−1.

[18] = test system: Abutilon theophrasti; experiment: Herbicidal activity, soil, pre-emergence; assay type: in vivo
Method: as §1, §2

[19] = test system: Cyperus esculentus; experiment: Herbicidal activity, soil, pre-emergence; assay type: in vivo
Method: as §1, §2

[20] = test system: Xanthium strumarium; experiment: Herbicidal activity, soil, pre-emergence; assay type: in vivo
Method: as §1, §2

[21] = test system: Sinapis arvensis; experiment: Herbicidal activity, soil, pre-emergence; assay type: in vivo; conditions: Mutarda arvensis
Method: as §1, §2

[22] = test system: Amaranthus retroflexus; experiment: Herbicidal activity, soil, pre-emergence; assay type: in vivo
Method: as §1, §2

[23] = test system: Avena fatua; experiment: Herbicidal activity, soil, pre-emergence; assay type: in vivo
Method: as §1, §2

[24] = test system: Beta vulgaris; experiment: Herbicidal activity, soil, pre-emergence; assay type: in vivo
Method: as §1, §2

[25] = test system: Zea mays; experiment: Herbicidal activity, soil, pre-emergence; assay type: in vivo
Method: as §1, §2

[26] = test system: Setaria viridis; experiment: Herbicidal activity, soil, pre-emergence; assay type: in vivo
Method: as §1, §2

[27] = test system: Alopecurus myosuroides; experiment: Herbicidal activity, soil, pre-emergence; assay type: in vivo
Method: as §1, §2

[28] = test system: Galium aperine; experiment: Herbicidal activity, soil, pre-emergence; assay type: in vivo
Method: as §1, §2

[29] = Soil, post-emergence, 500 gram/hectare
[30] = Soil, pre-emergence, 500 gram/hectare
[31] = read-out: Herbicidal activity, Abutilon theophrasti
[32] = read-out: Herbicidal activity, Cyperus esculentus
[33] = read-out: Herbicidal activity, Xanthium strumarium
[34] = read-out: Herbicidal activity, Sinapis arvensis
[35] = read-out: Herbicidal activity, Amaranthus retroflexus
[36] = read-out: Herbicidal activity, Avena fatua
[37] = read-out: Herbicidal activity, Beta vulgaris
[38] = read-out: Herbicidal activity, Zea mays
[39] = read-out: Herbicidal activity, Setaria viridis
[40] = read-out: Herbicidal activity, Alopecurus myosuroides
[41] = read-out: Herbicidal activity, Galium aperine

**Q.** Which IC50 [1] does the source give for `CP(C)(=O)CNCN(O)C(=O)c1ccccc1` [Compound 2, N-(N-Benzoyl-N-hydroxyaminomethyl)aminomethyldimethylphosphine oxide] here?
**A.** 420 nM

**Q.** What about the pest or weed control at 500 g/ha [2, 29] of the same compound?
**A.** 50%

**Q.** What about the pest or weed control at 500 g/ha [3, 29] of the same compound?
**A.** 0%

**Q.** What about the pest or weed control at 500 g/ha [4, 29] of the same compound?
**A.** 50%

**Q.** And the pest or weed control at 500 g/ha [5, 29]?
**A.** 80%

**Q.** And the pest or weed control at 500 g/ha [6, 29]?
**A.** 0%

**Q.** And the pest or weed control at 500 g/ha [7, 29]?
**A.** 70%

**Q.** And the plant injury at 500 g/ha [8, 29]?
**A.** 50%

**Q.** What about the plant injury at 500 g/ha [9, 29] of the same compound?
**A.** 70%

**Q.** And the pest or weed control at 500 g/ha [10, 29]?
**A.** 90%

**Q.** What about the pest or weed control at 500 g/ha [11, 29] of the same compound?
**A.** 60%

**Q.** And the pest or weed control at 500 g/ha [12, 29]?
**A.** 60%

**Q.** And the pest or weed control at 1000 g/ha ([13]; Water, 1000 gram/hectare)?
**A.** 0%

**Q.** And the plant injury at 1000 g/ha ([14]; Water, 1000 gram/hectare)?
**A.** 30%

**Q.** What about the pest or weed control at 1000 g/ha ([15]; Water, 1000 gram/hectare) of the same compound?
**A.** 30%

**Q.** What about the pest or weed control at 1000 g/ha ([16]; Water, 1000 gram/hectare) of the same compound?
**A.** 0%

**Q.** And the IC50 ([17]; recombinant enzyme, 0.3 mM NADPH, 1 mM DOXP, pH 7.5, read-out: IC50 (nM) of DOXP reductoisomerase from Helicobacter pylori)?
**A.** 60 nM

**Q.** What about the pest or weed control at 500 g/ha [18, 30] of the same compound?
**A.** 0%

**Q.** What about the pest or weed control at 500 g/ha [19, 30] of the same compound?
**A.** 0%

**Q.** What about the pest or weed control at 500 g/ha [20, 30] of the same compound?
**A.** 0%

**Q.** And the pest or weed control at 500 g/ha [21, 30]?
**A.** 60%

**Q.** And the pest or weed control at 500 g/ha [22, 30]?
**A.** 0%

**Q.** And the pest or weed control at 500 g/ha [23, 30]?
**A.** 0%

**Q.** And the plant injury at 500 g/ha [24, 30]?
**A.** 50%

**Q.** What about the plant injury at 500 g/ha [25, 30] of the same compound?
**A.** 0%

**Q.** What about the pest or weed control at 500 g/ha [26, 30] of the same compound?
**A.** 0%

**Q.** What about the pest or weed control at 500 g/ha [27, 30] of the same compound?
**A.** 0%

**Q.** What about the pest or weed control at 500 g/ha [28, 30] of the same compound?
**A.** 0%

**Q.** `O=CN(O)CNCP(=O)(O)O` [Compound 8] was tested. Which pest or weed control at 1000 g/ha [2, 31] did it give?
**A.** 50%

**Q.** And the pest or weed control at 1000 g/ha [3, 32]?
**A.** 0%

**Q.** And the pest or weed control at 1000 g/ha [4, 33]?
**A.** 90%

**Q.** What about the pest or weed control at 1000 g/ha [5, 34] of the same compound?
**A.** 70%

**Q.** And the pest or weed control at 1000 g/ha [6, 35]?
**A.** 50%

**Q.** And the pest or weed control at 1000 g/ha [7, 36]?
**A.** 80%

**Q.** What about the plant injury at 1000 g/ha [8, 37] of the same compound?
**A.** 50%

**Q.** And the plant injury at 1000 g/ha [9, 38]?
**A.** 70%

**Q.** And the pest or weed control at 1000 g/ha [10, 39]?
**A.** 90%

**Q.** What about the pest or weed control at 1000 g/ha [11, 40] of the same compound?
**A.** 80%

**Q.** What about the pest or weed control at 1000 g/ha [12, 41] of the same compound?
**A.** 70%

**Q.** And the pest or weed control at 2000 g/ha ([13]; read-out: Herbicidal activity, Echinochloa)?
**A.** 40%

**Q.** What about the plant injury at 2000 g/ha ([14]; read-out: Herbicidal activity, Rice) of the same compound?
**A.** 30%

**Q.** What about the pest or weed control at 2000 g/ha ([15]; read-out: Herbicidal activity, Lepidium) of the same compound?
**A.** 30%

**Q.** And the pest or weed control at 2000 g/ha ([16]; read-out: Herbicidal activity, Solanum)?
**A.** 30%

**Q.** What about the IC50 [17] of the same compound?
**A.** 60 nM

**Q.** What about the pest or weed control at 1000 g/ha [18, 31] of the same compound?
**A.** 0%

**Q.** And the pest or weed control at 1000 g/ha [19, 32]?
**A.** 0%

**Q.** What about the pest or weed control at 1000 g/ha [20, 33] of the same compound?
**A.** 0%

**Q.** And the pest or weed control at 1000 g/ha [21, 34]?
**A.** 30%

**Q.** What about the pest or weed control at 1000 g/ha [22, 35] of the same compound?
**A.** 20%

**Q.** And the pest or weed control at 1000 g/ha [23, 36]?
**A.** 30%

**Q.** What about the plant injury at 1000 g/ha [24, 37] of the same compound?
**A.** 40%

**Q.** And the plant injury at 1000 g/ha [25, 38]?
**A.** 30%

**Q.** What about the pest or weed control at 1000 g/ha [26, 39] of the same compound?
**A.** 0%

**Q.** And the pest or weed control at 1000 g/ha [27, 40]?
**A.** 30%

**Q.** What about the pest or weed control at 1000 g/ha [28, 41] of the same compound?
**A.** 0%

From US20030144249A1, “Use of organophosphorous compounds for producing a medicament for treating infections” (priority 2000, published 2003)
